Assay results as given in BindingDB's records for doi:10.1016/j.ejmech.2020.112602 (Utah State University, 2020).

Columns and labels:
[1] = Inhibition of human Cx43 expressed in Escherichia coli LB2003 cells in medium containing 8 mM K+ and 10 uM IPTG by measuring cell growth after 18 hrs by plate reader
[2] = Inhibition of human Cx26 expressed in Escherichia coli LB2003 cells in medium containing 4 mM K+ and 500 uM IPTG by measuring cell growth after 18 hrs by plate reader

| SMILES | IC50 [1] [µM] | IC50 [2] [µM] |
| --- | --- | --- |
| Cc1ccc(COC[C@H]2O[C@H](O[C@@H]3[C@@H](O)[C@H](O[C@H]4O[C@H](CN)[C@@H](O)[C@H](O)[C@H]4O)[C@@H](N)C[C@H]3N)[C@H](O)[C@@H](N)[C@@H]2OCc2ccc(C)cc2)cc1 | 3.1 |  |
| COc1ccc(COC[C@H]2O[C@H](O[C@@H]3[C@@H](O)[C@H](O[C@H]4O[C@H](CN)[C@@H](O)[C@H](O)[C@H]4O)[C@@H](N)C[C@H]3N)[C@H](O)[C@@H](N)[C@@H]2OCc2ccc(OC)cc2)cc1 | 4.1 |  |
| CCCCCCCCCCCC(=O)NC[C@H]1O[C@H](O[C@H]2[C@H](O)[C@@H](O[C@H]3O[C@H](CO)[C@@H](O)[C@H](N)[C@H]3O)[C@H](N)C[C@@H]2N)[C@H](O)[C@@H](O)[C@@H]1O |  | 66.7 |
| NC[C@H]1O[C@H](O[C@H]2[C@H](O)[C@@H](O[C@H]3O[C@H](COCc4ccc(Cl)cc4)[C@@H](OCc4ccc(Cl)cc4)[C@H](N)[C@H]3O)[C@H](N)C[C@@H]2N)[C@H](O)[C@@H](O)[C@@H]1O | 17.1 |  |
| NC[C@H]1O[C@H](O[C@H]2[C@H](O)[C@@H](O[C@H]3O[C@H](COCc4cccc(-c5ccccc5)c4)[C@@H](OCc4cccc(-c5ccccc5)c4)[C@H](N)[C@H]3O)[C@H](N)C[C@@H]2N)[C@H](O)[C@@H](O)[C@@H]1O | 5.5 |  |
| N[C@@H]1[C@@H](O)[C@@H](O[C@@H]2[C@@H](O)[C@H](O[C@H]3O[C@H](CNC(=O)c4ccccc4-c4c5ccc(=O)cc-5oc5cc(O)ccc45)[C@@H](O)[C@H](O)[C@H]3O)[C@@H](N)C[C@H]2N)O[C@H](CO)[C@H]1O | 8.9 | 12.7 |
| NC[C@H]1O[C@H](O[C@H]2[C@H](O)[C@@H](O[C@H]3O[C@H](COCc4ccc5ccccc5c4)[C@@H](OCc4ccc5ccccc5c4)[C@H](N)[C@H]3O)[C@H](N)C[C@@H]2N)[C@H](O)[C@@H](O)[C@@H]1O | 6.2 |  |

The remaining compounds from weak to strong by IC50 [1], led by results:

| IC50 [1] [µM] | IC50 [2] [µM] | SMILES |
| --- | --- | --- |
| 26.6 |  | NC[C@H]1O[C@H](O[C@H]2[C@H](O)[C@@H](O[C@H]3O[C@H](COCc4ccc(F)cc4)[C@@H](OCc4ccc(F)cc4)[C@H](N)[C@H]3O)[C@H](N)C[C@@H]2N)[C@H](O)[C@@H](O)[C@@H]1O |
| 17.7 | 6 | NC[C@H]1O[C@H](O[C@H]2[C@H](O)[C@@H](O[C@H]3O[C@H](COc4ccc(-c5nc6ccccc6[nH]5)cc4)[C@@H](O)[C@H](N)[C@H]3O)[C@H](N)C[C@@H]2N)[C@H](O)[C@@H](O)[C@@H]1O |
| 8.9 | 17.2 | NC[C@H]1O[C@H](O[C@H]2[C@H](O)[C@@H](O[C@H]3O[C@H](COc4ccc(Cl)cc4)[C@@H](O)[C@H](N)[C@H]3O)[C@H](N)C[C@@H]2N)[C@H](O)[C@@H](O)[C@@H]1O |
| 8.6 | 18.6 | N[C@@H]1[C@@H](O)[C@@H](O[C@@H]2[C@@H](O)[C@H](O[C@H]3O[C@H](CNC(=O)CCCc4cc5ccc6cccc7ccc(c4)c5c67)[C@@H](O)[C@H](O)[C@H]3O)[C@@H](N)C[C@H]2N)O[C@H](CO)[C@H]1O |
| 6.2 | 49.4 | Cc1ccc(OC[C@H]2O[C@H](O[C@@H]3[C@@H](O)[C@H](O[C@H]4O[C@H](CN)[C@@H](O)[C@H](O)[C@H]4O)[C@@H](N)C[C@H]3N)[C@H](O)[C@@H](N)[C@@H]2O)cc1 |
